Experimental data published in patent US20240024273A1, “TOPICAL ADMINISTRATION OF 2-(DIETHYLAMINO)ETHYL 2-(4-ISOBUTYLPHENYL)PROPRIONATE FOR TREATMENT OF DISEASES” (TECHFIELDS PHARMA CO., LTD., priority 2020, published 2024).

Tested on: Mild to Moderate Osteoarthritis of the Knee
Test: Phase 2 study: WOMAC difficulty performing daily activities subscale score
Type: in vivo, human
Conditions: for Change of WOMAC Difficulty performing daily activities score from baseline (±SEM) / Percentage of improvement from baseline, WOMAC Difficulty performing daily activities score: all patients taken as active
Source text: This is a Phase 2, multicenter, randomized, double blind (within dose), placebo controlled, parallel group, proof of concept, and dose range finding study to evaluate the efficacy, safety, and PK of 2-(diethylamino)ethyl 2-(4-isobutylphenyl)propionate hydrochloride spray in adult subjects with clinically symptomatic mild to moderate OA of the knee. For subjects with bilateral knee pain, both knees will be treated, but the most symptomatic knee (i.e., the most painful knee as measured by the Western Ontario and McMaster University Osteoarthritis Index [WOMAC® 3.1] pain subscale score at Screening) will be designated as the target knee for efficacy analyses. For subjects with unilateral knee pain, only the symptomatic (target) knee will be treated.
After a Screening Period of up to 3 weeks and radiographic evaluation of the target knee joint space, a subject will be randomly assigned to 1 of 3 treatment groups in a 1:1:1 ratio with a 2:1 ratio of active:placebo within each treatment group (ie, 2 subjects to active treatment and 1 subject to placebo): • Group A: 8.75 mg 2-(diethylamino)ethyl 2-(4-isobutylphenyl)propionate/knee (2 sprays/knee, one spray to the medial surface and one spray to the lateral surface of the knee), twice daily (BID, approximately every 12 hours; n=50) or placebo (2 sprays/knee), BID (approximately every 12 hours; n=25) for a total of 4 sprays per knee per day; • Group B: 17.5 mg 2-(diethylamino)ethyl 2-(4-isobutylphenyl)propionate/knee (4 sprays/knee, one spray to the medial surface and one spray to the lateral surface of the knee, and one spray to front and one spray to the back of the knee), BID (approximately every 12 hours; n=50) or placebo (4 sprays/knee), BID (approximately every 12 hours; n=25) for a total of 8 sprays per knee per day; • Group C: 35 mg 2-(diethylamino)ethyl 2-(4-isobutylphenyl)propionate/knee (8 sprays/knee, each spray is to be applied to a different non-overlapping area around the knee, and the areas are to be uniformly distributed around the knee), BID (approximately every 12 hours; n=50) or placebo (8 sprays/knee), BID (approximately every 12 hours; n=25) for a total of 16 sprays per knee per day.
The VAS version of the WOMAC will be used for the Primary and Secondary Efficacy Endpoints. Efficacy endpoints will be assessed at Screening and Baseline (Day 1) and at the Week 2, Week 4, Week 8, and Week 12/EOS visits.
3.9.2. Secondary Efficacy Endpoints: • 1. Change from Baseline in the WOMAC (VAS) pain subscale score for the target knee at 2, 4, and 8 weeks of treatment; • 2. Change from Baseline in the WOMAC (VAS) stiffness subscale scores for the target knee and WOMAC (VAS) functional ability subscale scores at 2, 4, 8, and 12 weeks of treatment; • 3. Change from Baseline in the overall WOMAC (VAS) score at 2, 4, 8, and 12 weeks of treatment.
The Secondary Efficacy Endpoints, change from Baseline in the WOMAC subscale scores for pain, stiffness, and functional ability, and overall WOMAC score at 2, 4, 8, and 12 weeks of treatment, will be analyzed using the same methods as for the Primary Efficacy Endpoint.
To determine this, we assumed that all patients received 2-(diethylamino)ethyl 2-(4-isobutylphenyl)propionate, active drug treatment (i.e. all patients who received 2-(diethylamino)ethyl 2-(4-isobutylphenyl)propionate or placebo treatment for 12 weeks or mixed up treatment during the 12-week treatment, as 2-(diethylamino)ethyl 2-(4-isobutylphenyl)propionate-treated). Based on this assumption, that is, to treat this trial as an open-label study and that all patients received active treatment, we conducted efficacy analysis using top-line efficacy datasets prepared by CRO and the re-analysis results are presented in the following tables (Tables 29-47). […] (William G. Bensen, Justus J. Fiechtner, James 1. McMillen, et. al. Treatment of Osteoarthritis with Celecoxib. Mayo Clin Proc, November 1999. Vol 74, 1095-1105.)

[1] = 8.75 mg/knee (BID), Follow up (week 13, day 91)
[2] = 8.75 mg/knee (BID), Week 2 (day 14)
[3] = 8.75 mg/knee (BID), Week 4 (day 28)
[4] = 8.75 mg/knee (BID), Week 8 (day 56)
[5] = 8.75 mg/knee (BID), Week 12 (day 84)
[6] = 17.5 mg/knee (BID), Follow up (week 13, day 91)
[7] = 17.5 mg/knee (BID), Week 2 (day 14)
[8] = 17.5 mg/knee (BID), Week 4 (day 28)
[9] = 17.5 mg/knee (BID), Week 8 (day 56)
[10] = 17.5 mg/knee (BID), Week 12 (day 84)
[11] = 35 mg/knee (BID), Follow up (week 13, day 91)
[12] = 35 mg/knee (BID), Week 2 (day 14)
[13] = 35 mg/knee (BID), Week 4 (day 28)

SMILES: CCN(CC)CCOC(=O)C(C)c1ccc(CC(C)C)cc1 (stereo not shown) [2-(diethylamino)ethyl 2-(4-isobutylphenyl)propionate]
- Change of WOMAC Difficulty performing daily activities score from baseline (±SEM), adjusted by […] of the Testing Drug Amount [1]: −34.6(±5.8) mm
- Percentage of improvement from baseline, WOMAC Difficulty performing daily activities score, adjusted by […] of the Testing Drug Amount [1]: −57.6%
- Change of WOMAC Difficulty performing daily activities score from baseline (±SEM) [1]: −20.3(±3.4) mm
- Percentage of improvement from baseline, WOMAC Difficulty performing daily activities score [1]: −33.6%
- Change of WOMAC Difficulty performing daily activities score from baseline (±SEM), adjusted by […] of the Testing Drug Amount [2]: −18.2(±4.4) mm
- Percentage of improvement from baseline, WOMAC Difficulty performing daily activities score, adjusted by […] of the Testing Drug Amount [2]: −30.0%
- Change of WOMAC Difficulty performing daily activities score from baseline (±SEM) [2]: −10.6(±2.6) mm
- Percentage of improvement from baseline, WOMAC Difficulty performing daily activities score [2]: −17.5%
- Change of WOMAC Difficulty performing daily activities score from baseline (±SEM), adjusted by […] of the Testing Drug Amount [3]: −28.1(±5.1) mm
- Percentage of improvement from baseline, WOMAC Difficulty performing daily activities score, adjusted by […] of the Testing Drug Amount [3]: −46.7%
- Change of WOMAC Difficulty performing daily activities score from baseline (±SEM) [3]: −16.4(±3.0) mm
- Percentage of improvement from baseline, WOMAC Difficulty performing daily activities score [3]: −27.2%
- Change of WOMAC Difficulty performing daily activities score from baseline (±SEM), adjusted by […] of the Testing Drug Amount [4]: −33.1(±5.3) mm
- Percentage of improvement from baseline, WOMAC Difficulty performing daily activities score, adjusted by […] of the Testing Drug Amount [4]: −54.9%
- Change of WOMAC Difficulty performing daily activities score from baseline (±SEM) [4]: −19.3(±3.1) mm
- Percentage of improvement from baseline, WOMAC Difficulty performing daily activities score [4]: −32.0%
- Change of WOMAC Difficulty performing daily activities score from baseline (±SEM), adjusted by […] of the Testing Drug Amount [5]: −35.3(±5.8) mm
- Percentage of improvement from baseline, WOMAC Difficulty performing daily activities score, adjusted by […] of the Testing Drug Amount [5]: −58.5%
- Change of WOMAC Difficulty performing daily activities score from baseline (±SEM) [5]: −20.6(±3.4) mm
- Percentage of improvement from baseline, WOMAC Difficulty performing daily activities score [5]: −34.1%
- Change of WOMAC Difficulty performing daily activities score from baseline (±SEM), adjusted by […] of the Testing Drug Amount [6]: −39.6(±5.5) mm
- Percentage of improvement from baseline, WOMAC Difficulty performing daily activities score, adjusted by […] of the Testing Drug Amount [6]: −62.4%
- Change of WOMAC Difficulty performing daily activities score from baseline (±SEM) [6]: −23.1(±3.2) mm
- Percentage of improvement from baseline, WOMAC Difficulty performing daily activities score [6]: −36.4%
- Change of WOMAC Difficulty performing daily activities score from baseline (±SEM), adjusted by […] of the Testing Drug Amount [7]: −26.2(±4.1) mm
- Percentage of improvement from baseline, WOMAC Difficulty performing daily activities score, adjusted by […] of the Testing Drug Amount [7]: −41.3%
- Change of WOMAC Difficulty performing daily activities score from baseline (±SEM) [7]: −15.3(±2.4) mm
- Percentage of improvement from baseline, WOMAC Difficulty performing daily activities score [7]: −24.1%
- Change of WOMAC Difficulty performing daily activities score from baseline (±SEM), adjusted by […] of the Testing Drug Amount [8]: −36.2(±4.8) mm
- Percentage of improvement from baseline, WOMAC Difficulty performing daily activities score, adjusted by […] of the Testing Drug Amount [8]: −57.1%
- Percentage of improvement from baseline, WOMAC Difficulty performing daily activities score [8]: −33.3%
- Change of WOMAC Difficulty performing daily activities score from baseline (±SEM), adjusted by […] of the Testing Drug Amount [9]: −41.3(±5.1) mm
- Percentage of improvement from baseline, WOMAC Difficulty performing daily activities score, adjusted by […] of the Testing Drug Amount [9]: −65.2%
- Change of WOMAC Difficulty performing daily activities score from baseline (±SEM) [9]: −24.1(±3.0) mm
- Percentage of improvement from baseline, WOMAC Difficulty performing daily activities score [9]: −38.0%
- Change of WOMAC Difficulty performing daily activities score from baseline (±SEM), adjusted by […] of the Testing Drug Amount [10]: −46.1(±5.5) mm
- Percentage of improvement from baseline, WOMAC Difficulty performing daily activities score, adjusted by […] of the Testing Drug Amount [10]: −72.7%
- Change of WOMAC Difficulty performing daily activities score from baseline (±SEM) [10]: −26.9(±3.2) mm
- Percentage of improvement from baseline, WOMAC Difficulty performing daily activities score [10]: −42.4%
- Change of WOMAC Difficulty performing daily activities score from baseline (±SEM), adjusted by […] of the Testing Drug Amount [11]: −35.0(±4.5) mm
- Percentage of improvement from baseline, WOMAC Difficulty performing daily activities score, adjusted by […] of the Testing Drug Amount [11]: −60.9%
- Change of WOMAC Difficulty performing daily activities score from baseline (±SEM) [11]: −20.4(±2.6) mm
- Percentage of improvement from baseline, WOMAC Difficulty performing daily activities score [11]: −35.5%
- Change of WOMAC Difficulty performing daily activities score from baseline (±SEM), adjusted by […] of the Testing Drug Amount [12]: −16.1(±3.3) mm
- Percentage of improvement from baseline, WOMAC Difficulty performing daily activities score, adjusted by […] of the Testing Drug Amount [12]: −28.1%
- Change of WOMAC Difficulty performing daily activities score from baseline (±SEM) [12]: −9.4(±1.9) mm
- Percentage of improvement from baseline, WOMAC Difficulty performing daily activities score [12]: −16.4%
- Change of WOMAC Difficulty performing daily activities score from baseline (±SEM), adjusted by […] of the Testing Drug Amount [13]: −23.0(±3.9) mm
- Percentage of improvement from baseline, WOMAC Difficulty performing daily activities score, adjusted by […] of the Testing Drug Amount [13]: −40.0%
- Change of WOMAC Difficulty performing daily activities score from baseline (±SEM) [13]: −13.4(±2.3) mm
- Percentage of improvement from baseline, WOMAC Difficulty performing daily activities score [13]: −23.3%
- Change of WOMAC Difficulty performing daily activities score from baseline (±SEM), adjusted by […] of the Testing Drug Amount (35 mg/knee (BID), Week 8 (day 56)): −31.6(±4.5) mm
